# Data taken from patent US20100266618A1, “COMPOSITIONS AND METHODS FOR AUGMENTING ACTIVITY OF ONCOLYTIC VIRUSES” (priority 2009, published 2010).
# Read-outs that look alike come from different tables or passages of the source.
# Legend:
# [1] = tested on: OVCAR-8 (ovarian carcinoma) cells; format: cell-based, human
# [2] = tested on: U373 (glioblastoma) cells; format: cell-based, human
# U373 cells = test: In vitro cytotoxicity assays with small molecules followed by Maraba virus infection; conditions: for enhancement of viral oncolysis (cell viability): viability 48 h later
# [3] = tested on: NCI-H226 (non-small cell lung carcinoma) cells; test: Genome-wide synthetic lethal RNAi screen with Maraba virus infection, resazurin cell viability; conditions: synthetic lethal hits, siRNA against the gene plus Maraba virus
# [4] = siRNA against the named gene plus Maraba virus, synthetic lethal hit list
# [5] = synthetic lethal hits, siRNA against the gene plus Maraba virus
molecule,measurement,setting,value
NODAL,COMPOSITE MAD SCORE OVCAR8,[1]; [4],−4.721
same,COMPOSITE MAD SCORE U373,[2]; [4],−2.315
"COc1cc(-c2cccc(C(N)=O)c2)cc(C=O)c1O [Compound 2, 3′-formyl-4′-hydroxy-5′-methoxy-[1,1′-biphenyl]-3-carboxamide]","lowest, maximally effective dose in cell culture experiments",U373 cells,20 µM
same,combination index (CI) with Maraba virus,"U373 cells; U373, across a range of doses and MOIs",< 1.0
same,enhancement of viral oncolysis (cell viability),"U373 cells; U373, drug 4 h prior to Maraba virus infection",but not 4 hours
same,enhancement of viral oncolysis (cell viability),"U373 cells; U373, drug 48 h prior to Maraba virus infection",greatly enhanced viral oncolysis
BMP4,COMPOSITE MAD SCORE OVCAR8,[1]; [5],−2.516
same,COMPOSITE MAD SCORE U373,[2]; [5],−2.038
same,COMPOSITE MAD SCORE NCIH226,[3],−2.642
tunicamycin [reference compound],virus-mediated killing after chemically induced ER preload,"U373 cells; pulse 48 hours before virus infection (5 ug/mL 24 h, 24 h washout)",enhance virus-mediated killing
